Reference: the supplement of paper PMC11061612

How the values were obtained:
Test in all cases: combination Emax (second highest fraction inhibited in the dose matrix, 72 h); higher = more inhibition; extreme values may be limits of the assay
[1] = system: KYSE-410 (Esophageal Squamous Cell Carcinoma)
Procedure, shortened: (§1)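 Cell lines grown in DMEM/F12 or RPMI with 10% FBS were plated in 1536-well plates and held 24 hours at 37°C, 5% CO2 before 72 hours of exposure to two-drug dose matrices, with DMSO typically at 0.2%. CellTiter-Glo 2.0 luminescence gave viability, which was converted to inhibition. Vehicle wells were set to 0 and blank wells to 1. Combination Emax is the second-highest inhibition in the matrix, and Bliss excess is the observed combination effect minus the expected EA + EB − EA·EB, where EA and EB are the single-agent effects.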

[2] = system: CAL-51 (Breast Carcinoma)
Procedure, shortened: as §1

[3] = system: HDLM-2 (Hodgkin's Lymphoma)
Procedure, shortened: as §1

[4] = system: RT-112 (Bladder Carcinoma)
Procedure, shortened: as §1

[5] = system: SU-DHL-6 (B-Cell Non-Hodgkin's Lymphoma)
Procedure, shortened: as §1

[6] = system: OVCAR-8 (Ovarian Carcinoma)
Procedure, shortened: as §1

[7] = system: Hs-633T (Other Solid Carcinomas)
Procedure, shortened: as §1

[8] = system: OC-314 (Ovarian Carcinoma)
Procedure, shortened: as §1

[9] = system: 639-V (Bladder Carcinoma)
Procedure, shortened: as §1

[10] = system: CTB-1 (B-Cell Non-Hodgkin's Lymphoma)
Procedure, shortened: as §1

[11] = system: HO-1-u-1 (Oral Cavity Carcinoma)
Procedure, shortened: as §1

[12] = system: NCI-H747 (Colorectal Carcinoma)
Procedure, shortened: as §1

[13] = system: K5 (Thyroid Gland Carcinoma)
Procedure, shortened: as §1

[14] = system: 8305C (Thyroid Gland Carcinoma)
Procedure, shortened: as §1

[15] = system: Mewo (Melanoma)
Procedure, shortened: as §1

[16] = system: UMC-11 (Other Solid Carcinomas)
Procedure, shortened: as §1

[17] = system: NCI-H2461 (Mesothelioma)
Procedure, shortened: as §1

[18] = system: NCI-H2795 (Mesothelioma)
Procedure, shortened: as §1

[19] = system: MDA-MB-468 (Breast Carcinoma)
Procedure, shortened: as §1

[20] = system: SW626 (Colorectal Carcinoma)
Procedure, shortened: as §1

Structure (SMILES) | combination Emax [1] | combination Emax [2] | combination Emax [3] | combination Emax [4] | combination Emax [5] | combination Emax [6] | combination Emax [7] | combination Emax [8] | combination Emax [9] | combination Emax [10] | combination Emax [11] | combination Emax [12] | combination Emax [13] | combination Emax [14] | combination Emax [15] | combination Emax [16] | combination Emax [17] | combination Emax [18] | combination Emax [19] | combination Emax [20]
Cc1c2c(nn1C)CSCc1cc(n(C)n1)CSc1cc(c3ccccc3c1)OCCCc1c(C(=O)O)n(C)c3c-2c(Cl)ccc13 [AZD5991] + Cc1cc2ncnn2cc1Nc1ncc2c(n1)n(C1CCOCC1)c(=O)n2C [AZD7648] (first compound max 1 µM, 7x7, partner max 10 µM) | 0.229 | 0.365 | 0.996 | 0.854 | 1 | 0.225 | 0.391 | 0.297 | 0.298 | 0.472 | 0.418 | 0.392 | 0.351 | 0.432 | 0.283 | 0.625 | 0.422 | 0.941 | 0.462 | 0.224
Cc1c2c(nn1C)CSCc1cc(n(C)n1)CSc1cc(c3ccccc3c1)OCCCc1c(C(=O)O)n(C)c3c-2c(Cl)ccc13 [AZD5991] + C=CCn1c(=O)c2cnc(Nc3ccc(N4CCN(C)CC4)cc3)nc2n1-c1cccc(C(C)(C)O)n1 [AZD1775] (first compound max 1 µM, partner max 1 µM) | 0.625 | 0.915 | 1 | 0.981 | 1 | 0.865 | 0.711 | 0.554 | 0.448 | 0.916 | 0.677 | 0.598 | 0.482 | 0.646 | 0.496 | 0.784 | 0.712 | 0.881 | 0.615 | 0.559
Cc1c2c(nn1C)CSCc1cc(n(C)n1)CSc1cc(c3ccccc3c1)OCCCc1c(C(=O)O)n(C)c3c-2c(Cl)ccc13 [AZD5991] + CCN(CCO)CCCOc1ccc2c(Nc3cc(CC(=O)Nc4cccc(F)c4)[nH]n3)ncnc2c1 [AZD2811] (first compound max 1 µM, 7x7, partner max 1 µM) | 0.265 | 0.66 | 0.978 | 0.986 | 1 | 0.42 | 0.421 | 0.449 | 0.368 | 0.641 | 0.657 | 0.311 | 0.298 | 0.365 | 0.366 | 0.949 | 0.335 | 0.762 | 0.738 | 0.325
CC1(C)CCC(CN2CCN(c3ccc(C(=O)NS(=O)(=O)c4ccc(NCC5CCOCC5)c([N+](=O)[O-])c4)c(Oc4cnc5[nH]ccc5c4)c3)CC2)=C(c2ccc(Cl)cc2)C1 [Venetoclax] + C1CN(CCC1(C(=O)N[C@@H](CCO)C2=CC=C(C=C2)Cl)N)C3=NC=NC4=C3C=CN4 [Capivasertib] (first compound max 1 µM, 7x7, partner max 3 µM) | 0.203 | 0.487 | 0.514 | 0.192 | 0.995 | 0.184 | 0.177 | 0.316 | 0.283 | 0.429 | 0.719 | 0.441 | 0.546 | 0.387 | 0.533 | 0.196 | 0.528 | 0.375 | 0.511 | 0.161
CN(C)CCCOc1ccc(-c2ccc3ncc4c(c3c2)n(C2CCOCC2)c(=O)n4C)cn1 [AZD0156] + C[C@@H]1COCCN1C2=NC(=NC(=C2)C3(CC3)[S@](=N)(=O)C)C4=C5C=CNC5=NC=C4 [AZD6738] (first compound max 1 µM, 7x7, partner max 10 µM) | 0.297 | 0.95 | 0.376 | 0.919 | 0.629 | 0.88 | 0.925 | 0.869 | 0.35 | 0.829 | 0.943 | 0.266 | 0.753 | 0.506 | 0.594 | 0.642 | 0.71 | 0.7 | 0.527 | 0.566
C=CCn1c(=O)c2cnc(Nc3ccc(N4CCN(C)CC4)cc3)nc2n1-c1cccc(C(C)(C)O)n1 [AZD1775] + O=C(c1cc(Cc2n[nH]c(=O)c3ccccc23)ccc1F)N1CCN(C(=O)C2CC2)CC1 [Olaparib] (first compound max 1 µM, partner max 10 µM) | 0.251 | 0.811 | 0.74 | 0.705 | 0.85 | 0.797 | 0.657 | 0.631 | 0.333 | 0.879 | 0.644 | 0.501 | 0.528 | 0.506 | 0.382 | 0.438 | 0.649 | 0.57 | 0.484 | 0.573
CC1(C)CCC(CN2CCN(c3ccc(C(=O)NS(=O)(=O)c4ccc(NCC5CCOCC5)c([N+](=O)[O-])c4)c(Oc4cnc5[nH]ccc5c4)c3)CC2)=C(c2ccc(Cl)cc2)C1 [Venetoclax] + CCN(CCO)CCCOc1ccc2c(Nc3cc(CC(=O)Nc4cccc(F)c4)[nH]n3)ncnc2c1 [AZD2811] (first compound max 1 µM, 7x7, partner max 1 µM) | 0.191 | 0.349 | 0.486 | 0.458 | 0.877 | 0.298 | 0.217 | 0.419 | 0.248 | 0.59 | 0.324 | 0.246 | 0.413 | 0.354 | 0.434 | 0.91 | 0.422 | 0.422 | 0.624 | 0.212
CCN(CCO)CCCOc1ccc2c(Nc3cc(CC(=O)Nc4cccc(F)c4)[nH]n3)ncnc2c1 [AZD2811] + C=CCn1c(=O)c2cnc(Nc3ccc(N4CCN(C)CC4)cc3)nc2n1-c1cccc(C(C)(C)O)n1 [AZD1775] (first compound max 1 µM, partner max 1 µM) | 0.267 | 0.815 | 0.746 | 0.531 | 0.734 | 0.791 | 0.649 | 0.839 | 0.265 | 0.876 | 0.54 | 0.414 | 0.507 | 0.89 | 0.402 | 0.832 | 0.638 | 0.441 | 0.434 | 0.427
CC1(C)CCC(CN2CCN(c3ccc(C(=O)NS(=O)(=O)c4ccc(NCC5CCOCC5)c([N+](=O)[O-])c4)c(Oc4cnc5[nH]ccc5c4)c3)CC2)=C(c2ccc(Cl)cc2)C1 [Venetoclax] + CN(C)CCCOc1ccc(-c2ccc3ncc4c(c3c2)n(C2CCOCC2)c(=O)n4C)cn1 [AZD0156] (first compound max 1 µM, 7x7, partner max 1 µM) | 0.172 | 0.242 | 0.362 | 0.243 | 0.904 | 0.219 | 0.266 | 0.316 | 0.202 | 0.242 | 0.413 | 0.305 | 0.374 | 0.369 | 0.547 | 0.269 | 0.525 | 0.46 | 0.377 | 0.111
COc1cccc2c1C(=O)c1c(O)c3c(c(O)c1C2=O)C[C@@](O)(C(=O)CO)C[C@@H]3O[C@H]1C[C@H](N)[C@H](O)[C@H](C)O1 [Doxorubicin] + Cc1cc2ncnn2cc1Nc1ncc2c(n1)n(C1CCOCC1)c(=O)n2C [AZD7648] (first compound max 1 µM, 7x7, partner max 10 µM) | 0.117 | 0.936 | 0.545 | 0.9 | 0.989 | 0.923 | 0.932 | 1 | 0.98 | 0.911 | 0.832 | 0.743 | 0.823 | 0.876 | 0.599 | 0.613 | 0.867 | 0.709 | 0.638 | 0.419
CN(CCO)CC[C@H](CSc1ccccc1)Nc1ccc(S(=O)(=O)NC(=O)c2ccc(N3CCC([C@@H](O)c4ccccc4-c4ccc(Cl)cc4)CC3)cc2)cc1S(=O)(=O)C(F)(F)F [AZD4320] + Cc1cc2ncnn2cc1Nc1ncc2c(n1)n(C1CCOCC1)c(=O)n2C [AZD7648] (first compound max 1 µM, 7x7, partner max 10 µM) | 0.134 | 0.193 | 0.895 | 0.293 | 0.97 | 0.14 | 0.614 | 0.22 | 0.208 | 0.317 | 0.325 | 0.387 | 0.392 | 0.699 | 0.194 | 0.712 | 0.293 | 0.43 | 0.747 | 0.577
COc1cccc(OCCCN)c1-c1cc(Nc2cnc(C#N)cn2)n[nH]1 [Prexasertib] + C[C@@H]1COCCN1C2=NC(=NC(=C2)C3(CC3)[S@](=N)(=O)C)C4=C5C=CNC5=NC=C4 [AZD6738] (first compound max 1 µM, 7x7, partner max 10 µM) | 0.532 | 0.929 | 0.528 | 0.992 | 0.621 | 0.991 | 0.936 | 0.934 | 0.397 | 0.899 | 0.923 | 0.443 | 0.7 | 0.718 | 0.479 | 0.866 | 0.721 | 0.765 | 0.547 | 0.743
